In experiment [1] the target is T1, PI3Kα (Homo sapiens, UniProt P42336).
T1 construct: endogenous in cells; host or cells: Jurkat cells (ATCC TIB-152) lysate, the only lysate described
Briefly: kinobeads assay, PI3K alpha (dot blot detection). The class given is binding. To be noted: Table 4, read-out: Inhibition values (IC50) PI3Ka.

The test system of experiment [2] is S6RP serine-240/244 phosphorylation in HEK293T/17 cells. The experiment is described as follows: In vitro phospho-S6 cellular assay (pS6RP S240/244). The class given is cell-based. The settings on record: Homo sapiens, Table 6, 2 hours, S6RP Ser240/244, read-out: pS6 (phospho-S6 cell assay data, activity level). Put shortly: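 HEK293T/17 cells in DMEM with 2% FCS treated with 8 compound concentrations (0.1% DMSO) for 2 h at 37 °C, then lysed. Phospho-S6RP Ser240/244 or phospho-Akt Ser473 quantified by MesoScale sandwich immunoassay with Sulfo-Tag detection; IC50 from variable-slope sigmoidal fit.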

T1 sequence (P42336 whole entry): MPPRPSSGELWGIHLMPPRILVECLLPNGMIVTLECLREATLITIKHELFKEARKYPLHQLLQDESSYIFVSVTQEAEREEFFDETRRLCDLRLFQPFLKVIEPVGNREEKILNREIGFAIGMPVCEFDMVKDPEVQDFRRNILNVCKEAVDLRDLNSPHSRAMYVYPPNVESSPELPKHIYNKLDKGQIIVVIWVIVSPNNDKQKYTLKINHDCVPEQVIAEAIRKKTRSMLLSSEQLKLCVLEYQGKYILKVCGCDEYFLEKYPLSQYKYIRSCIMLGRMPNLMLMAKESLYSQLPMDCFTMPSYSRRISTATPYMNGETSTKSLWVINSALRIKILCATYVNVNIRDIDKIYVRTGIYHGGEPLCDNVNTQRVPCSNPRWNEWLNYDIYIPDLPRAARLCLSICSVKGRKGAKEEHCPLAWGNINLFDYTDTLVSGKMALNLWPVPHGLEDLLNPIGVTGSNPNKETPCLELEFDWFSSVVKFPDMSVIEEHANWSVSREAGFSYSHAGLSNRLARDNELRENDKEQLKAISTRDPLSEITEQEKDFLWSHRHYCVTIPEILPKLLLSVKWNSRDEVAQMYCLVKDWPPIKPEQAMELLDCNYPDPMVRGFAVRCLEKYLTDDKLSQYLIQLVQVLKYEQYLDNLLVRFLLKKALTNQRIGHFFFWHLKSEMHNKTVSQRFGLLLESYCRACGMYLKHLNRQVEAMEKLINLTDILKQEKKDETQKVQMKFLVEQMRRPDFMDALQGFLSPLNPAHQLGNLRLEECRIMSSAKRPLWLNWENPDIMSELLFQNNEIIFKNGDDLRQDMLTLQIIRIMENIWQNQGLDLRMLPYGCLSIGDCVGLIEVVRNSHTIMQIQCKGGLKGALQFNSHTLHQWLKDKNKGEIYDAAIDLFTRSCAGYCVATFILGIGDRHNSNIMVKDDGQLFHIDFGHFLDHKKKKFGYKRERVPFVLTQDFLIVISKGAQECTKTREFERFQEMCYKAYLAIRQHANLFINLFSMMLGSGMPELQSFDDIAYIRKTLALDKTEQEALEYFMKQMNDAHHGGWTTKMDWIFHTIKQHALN
T1 sequence (P27986 whole entry partner): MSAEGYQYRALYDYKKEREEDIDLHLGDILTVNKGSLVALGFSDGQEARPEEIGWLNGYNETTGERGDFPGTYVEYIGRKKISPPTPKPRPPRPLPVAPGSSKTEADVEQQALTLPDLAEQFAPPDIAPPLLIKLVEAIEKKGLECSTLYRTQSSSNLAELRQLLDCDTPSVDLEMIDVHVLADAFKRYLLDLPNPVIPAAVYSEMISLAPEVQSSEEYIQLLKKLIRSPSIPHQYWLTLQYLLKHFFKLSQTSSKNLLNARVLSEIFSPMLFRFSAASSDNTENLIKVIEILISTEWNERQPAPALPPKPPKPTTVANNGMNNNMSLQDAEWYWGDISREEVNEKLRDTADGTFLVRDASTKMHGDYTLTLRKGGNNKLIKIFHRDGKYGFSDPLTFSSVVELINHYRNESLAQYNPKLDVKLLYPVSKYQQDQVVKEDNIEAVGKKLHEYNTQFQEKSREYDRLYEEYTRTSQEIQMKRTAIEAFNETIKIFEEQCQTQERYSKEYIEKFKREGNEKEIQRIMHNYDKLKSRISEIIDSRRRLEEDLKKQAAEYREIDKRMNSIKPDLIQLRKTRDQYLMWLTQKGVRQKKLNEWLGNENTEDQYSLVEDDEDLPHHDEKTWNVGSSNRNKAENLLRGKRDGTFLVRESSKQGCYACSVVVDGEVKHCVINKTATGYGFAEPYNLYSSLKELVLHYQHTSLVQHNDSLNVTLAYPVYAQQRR

Take `C[C@H]1COCCN1c1ccnc(-c2ccc(NC(=O)Nc3ccncc3)cc2)n1` [Example 60, (S)-1-(4-(4-(3-methylmorpholino)pyrimidin-2-yl)phenyl)-3-(pyridin-4-yl)urea]: the IC50 in experiment [1] was not below 10000 nM; in experiment [2], less than 100 nM.

With `C[C@H]1COCCN1c1nc(-c2ccc(NC(=O)NCC(F)F)cc2)cc(-c2cc(F)ccc2S(C)(=O)=O)n1` [Example 47, (S)-1-(2,2-difluoroethyl)-3-(4-(6-(5-fluoro-2-(methylsulfonyl)phenyl)-2-(3-methylmorpholino)pyrimidin-4-yl)phenyl)urea], the results for the IC50 in experiment [1] and in experiment [2] were not below 10000 nM and less than 100 nM, respectively.

For `O=C(Nc1ccncc1)Nc1ccc(-c2nccc(N3CC4CCC(C3)O4)n2)cc1` [Example 61, 1-(4-(4-(8-oxa-3-azabicyclo[3.2.1]octan-3-yl)pyrimidin-2-yl)phenyl)-3-(pyridin-4-yl)urea], the IC50 is not below 10000 nM in experiment [1] and less than 100 nM in experiment [2].

In the case of `CCNC(=O)Nc1ccc(-c2cc(-c3cc(F)ccc3S(C)(=O)=O)nc(N3CCOC[C@@H]3C)n2)cc1` [Example 2, (S)-1-ethyl-3-(4-(6-(5-fluoro-2-(methylsulfonyl)phenyl)-2-(3-methylmorpholino)pyrimidin-4-yl)phenyl)urea], the IC50 in experiment [1] was not below 10000 nM; in experiment [2], less than 100 nM.

For `C[C@H]1COCCN1c1nc(-c2ccc(NC(=O)N[C@H]3CCC[C@@H]3O)cc2)cc(-c2cc(F)ccc2S(C)(=O)=O)n1` [Example 76, 1-(4-(6-(5-fluoro-2-(methylsulfonyl)phenyl)-2-((S)-3-methylmorpholino)pyrimidin-4-yl)phenyl)-3-((1S,2S)-2-hydroxycyclopentyl)urea], the IC50 was not below 10000 nM in experiment [1] and less than 100 nM in experiment [2].

For `C[C@H]1COCCN1c1nc(-c2ccc(NC(=O)NC3CC3)cc2)cc(-c2ccccc2S(C)(=O)=O)n1` [Example 4, (S)-1-cyclopropyl-3-(4-(2-(3-methylmorpholino)-6-(2-(methylsulfonyl)phenyl)pyrimidin-4-yl)phenyl)urea], the IC50 in experiment [1] was not below 10000 nM; in experiment [2] it was less than 100 nM.

As for `C[C@H]1COCCN1c1cc(-c2ccccc2S(C)(=O)=O)nc(-c2ccc(NC(=O)NC3CC3)cc2)n1` [Example 6, (S)-1-cyclopropyl-3-(4-(4-(3-methylmorpholino)-6-(2-(methylsulfonyl)phenyl)pyrimidin-2-yl)phenyl)urea], the IC50 is not below 10000 nM in experiment [1] and less than 100 nM in experiment [2].

`C[C@H]1COCCN1c1cc(-c2ccccn2)nc(-c2ccc(NC(=O)NCCO)cc2)n1` [Example 43, (S)-1-(2-hydroxyethyl)-3-(4-(4-(3-methylmorpholino)-6-(pyridin-2-yl)pyrimidin-2-yl)phenyl)urea]: the IC50 in experiment [1] was not below 10000 nM; in experiment [2], less than 100 nM.

`C[C@H]1COCCN1c1nc(-c2ccc(NC(=O)NCCO)cc2)cc(-c2cc(F)ccc2S(C)(=O)=O)n1` [Example 41, (S)-1-(4-(6-(5-fluoro-2-(methylsulfonyl)phenyl)-2-(3-methylmorpholino)pyrimidin-4-yl)phenyl)-3-(2-hydroxyethyl)urea]: the IC50 in experiment [1] was not below 10000 nM; in experiment [2] it was less than 100 nM.

Consider `C[C@H]1COCCN1c1cc(-c2ccc(F)nc2)nc(-c2ccc(NC(=O)NC3CC3)cc2)n1` [Example 21, (S)-1-cyclopropyl-3-(4-(4-(6-fluoropyridin-3-yl)-6-(3-methylmorpholino)pyrimidin-2-yl)phenyl)urea], for which the IC50 in experiment [1] is not below 10000 nM; in experiment [2] it was less than 100 nM.

For the molecule `C[C@H]1COCCN1c1cc(-c2ccccn2)nc(-c2ccc(NC(=O)NC3CC3)cc2)n1` [Example 42, (S)-1-cyclopropyl-3-(4-(4-(3-methylmorpholino)-6-(pyridin-2-yl)pyrimidin-2-yl)phenyl)urea], the IC50 in experiment [1] was not below 10000 nM; in experiment [2] it was 100 to 1000 nM.

On to `CS(=O)(=O)c1ccc(F)cc1-c1cc(-c2ccc(NC(=O)NCCO)cc2)nc(N2CCOCC2)n1` [Example 62, 1-(4-(6-(5-fluoro-2-(methylsulfonyl)phenyl)-2-morpholinopyrimidin-4-yl)phenyl)-3-(2-hydroxyethyl)urea], for which the IC50 in experiment [1] is not below 10000 nM; in experiment [2], 100 to 1000 nM.

For `C[C@H]1COCCN1c1nc(-c2ccc(NC(=O)NCCF)cc2)cc(-c2cc(F)ccc2S(C)(=O)=O)n1` [Example 44, (S)-1-(4-(6-(5-fluoro-2-(methylsulfonyl)phenyl)-2-(3-methylmorpholino)pyrimidin-4-yl)phenyl)-3-(2-fluoroethyl)urea], the IC50 in experiment [1] is not below 10000 nM; in experiment [2] it was less than 100 nM.

In the case of `C[C@H]1COCCN1c1nc(-c2ccc(NC(=O)NC3CC3)cc2)cc(-c2cccnc2S(C)(=O)=O)n1` [Example 46, (S)-1-cyclopropyl-3-(4-(2-(3-methylmorpholino)-6-(2-(methylsulfonyl)pyridin-3-yl)pyrimidin-4-yl)phenyl)urea], the IC50 in experiment [1] was not below 10000 nM; in experiment [2], less than 100 nM.

On to `C[C@H]1COCCN1c1cc(-c2cncc(F)c2)nc(-c2ccc(NC(=O)NC3CC3)cc2)n1` [Example 23, (S)-1-cyclopropyl-3-(4-(4-(5-fluoropyridin-3-yl)-6-(3-methylmorpholino)pyrimidin-2-yl)phenyl)urea], for which the IC50 is not below 10000 nM in experiment [1] and 100 to 1000 nM in experiment [2].

Consider `C[C@H]1COCCN1c1nc(-c2ccc(NC(=O)NCCCO)cc2)cc(-c2cc(F)ccc2S(C)(=O)=O)n1` [Example 64, (S)-1-(4-(6-(5-fluoro-2-(methylsulfonyl)phenyl)-2-(3-methylmorpholino)pyrimidin-4-yl)phenyl)-3-(3-hydroxypropyl)urea], for which the IC50 is not below 10000 nM in experiment [1] and less than 100 nM in experiment [2].

As to `C[C@H]1COCCN1c1nc(-c2ccc(NC(=O)NC3CC3)cc2)cc(-c2cc(F)ccc2S(C)(=O)=O)n1` [Example 40, (S)-1-cyclopropyl-3-(4-(6-(5-fluoro-2-(methylsulfonyl)phenyl)-2-(3-methylmorpholino)pyrimidin-4-yl)phenyl)urea], the results for the IC50 in experiment [1] and in experiment [2] were not below 10000 nM and less than 100 nM, respectively.

For the origin of these results see patent US9249129B2, “Morpholino substituted urea derivatives as mTOR inhibitors” (CELLZOME LIMITED, priority 2010, dated 2016).
